Measured values reported in patent US20160135468A1, “A Composition for Enhanced Biocidal Activity and Water Purification Device on the Same” (INDIAN INSTITUTE OF TECHNOLOGY, priority 2013, published 2016).

What was measured:
E. coli [1] = test: Bacterial killing efficiency in sea salt containing water (Example 2); type: cell-based; conditions: Ag^+ 50 ppb (composition with CO3^2− 20 ppm), input 1×10^5 CFU/mL, 1 h standing
Description: In an aspect, 100 mL of synthetic water (typically containing E. coli concentration of 1×10^5 CFU/mL, unless otherwise mentioned) with Ag^+ (50 ppb) and Ag^+ (50 ppb)/CO3^2− (20 ppm) was separately shaken with different concentrations of sea salt. […] Synthetic challenge water contains all the ions as prescribed by US NSF for challenge water studies. Typically, one hour of standing time, unless otherwise mentioned, is provided for the exposure of microorganisms to the biocidal composition. After one hour of standing, 1 mL from the samples was plated along with agar on a sterile petridish using the pour plate method.

E. coli [2] = test: Bacterial killing efficiency at low silver ion concentration (Example 3); type: cell-based
Excerpt: This example describes the method of measuring the bacterial killing efficiency of the composition in comparison to silver ion, when low concentration of silver ion is used. […] Synthetic challenge water contains all the ions as prescribed by US NSF for challenge water studies. Source of carbonate ion is chosen one amongst the following: sodium carbonate, potassium carbonate or ammonium carbonate or a combination thereof. Source of Ag^+ is chosen one amongst the following: silver nitrate, silver acetate, silver sulfate, silver fluoride or a combination thereof. After one hour of standing, 1 mL from the samples was plated along with agar on a sterile petridish using pour plate method.

E. coli [3] = test: Bacterial killing efficiency with varying humic acid (Example 4); type: cell-based
Description: In an aspect, 100 mL of synthetic water samples (typically containing bacterial concentration of 1×10^5 CFU/mL, unless otherwise mentioned) containing varying concentrations of humic acid were separately shaken with Ag^+(50 ppb) and Ag^+(50 ppb)/CO3^2−(20 ppm). Synthetic challenge water contains all the ions as prescribed by US NSF for challenge water studies. […] After one hour of standing, 1 mL from the samples was plated along with agar on a sterile petridish using pour plate method.

S. aureus (MTCC 96) = test: S. aureus killing efficiency (Example 6); type: cell-based
Description: In an aspect, 100 mL of synthetic water (typically containing E-coli concentration of 1×10^5 CFU/mL, unless otherwise mentioned) was separately shaken with Ag^+ and Ag^+/CO3^2−. Synthetic challenge water contains all the ions as prescribed by US NSF for challenge water studies. Source of carbonate ion is chosen one amongst the following: sodium carbonate, potassium carbonate or ammonium carbonate or a combination thereof. Source of Ag^+ is chosen one amongst the following: silver nitrate, silver acetate, silver sulfate, silver fluoride or a combination thereof. 1 mL of the sample was plated along with nutrient agar on a sterile petridish using the pour plate method after 1 h. After 48 hours of incubation of plating at 37° C., the colonies were counted and recorded.

E-coli [4] = test: Sterility of stored treated water (Example 7); type: cell-based; conditions: 24 h storage
MS2 bacteriophage [5] = test: Virus killing efficiency, plaque assay (Example 9); type: cell-based
MS2 bacteriophage [6] = test: Kinetics of virus killing efficiency (Example 10); type: cell-based
Description: Synthetic water having the TDS between 300-500 ppm and pH=7±0.2 was used in the study. […] 1 mL of the sample along with soft agar was plated on a sterile petridish using plaque assay method after 15 min, 30 min, 45 min and 60 min of contact time.

MS2 bacteriophage [7] = test: Virus killing efficiency at higher virus input load (Example 11); type: cell-based; conditions: input virus concentration higher than 10^3 PFU/mL; silver ion alone
Description: Synthetic challenge water contains all the ions as prescribed by US NSF for challenge water studies. […] After one hour of contact time, 1 mL of the sample along with soft agar was plated on a sterile petridish using plaque assay method.

E. coli [8] = conditions: cited from earlier work
S. aureus = conditions: 50 ppb silver ion; input 10^7 CFU/mL; cited from earlier work
E-coli [9] = test: Bacterial killing efficiency of M^n+ and M^n+/CO3^2− (Example 5); type: cell-based; conditions: iron 200 ppb, zinc 1 ppm, carbonate 20 ppm; input 1×10^5 CFU/mL
[10] = 25° C.; cited from earlier work

## [Ag+] [Ag^+, silver ion]
E. coli [1]; sea salt 850 ppm
  output bacterial count: 2000 CFU/mL
E. coli [1]; sea salt 1100 ppm
  output bacterial count: 10,000 CFU/mL
E. coli [2]; 50 ppb Ag^+, input 1×10^5 CFU/mL, 1 h
  residual viable bacterial count: 10-50 CFU/mL
E. coli [2]; silver ion below 40-50 ppb, synthetic challenge water
  antibacterial activity, log reduction: 2-3 log reduction
E. coli [3]; 50 ppb Ag^+
  humic acid concentration up to which bacterial count is handled: up to 5 ppm
E. coli [3]; humic acid 50 ppm, Ag^+ 50 ppb (composition with CO3^2− 20 ppm), input 1×10^5 CFU/mL
  output count: near to the input concentration
S. aureus (MTCC 96); silver ion up to 50 ppb, 1 h standing
  S. aureus concentration: ≥ 10^3 CFU/mL
E-coli [4]; lower silver concentrations (<50 ppb)
  bacterial count after storage: > 10^3 CFU/mL
E-coli [4]; silver ion 50 ppb
  bacterial count after storage: 0 CFU/mL
MS2 bacteriophage [5]; higher silver ion concentration without SiO3^2− or CO3^2−
  residual virus: residual virus concentration is present
MS2 bacteriophage [6]; Ag^+ 50 ppb alone
  time at which virus killing efficiency reaches a saturation value: 1 h
MS2 bacteriophage [7]
  virus killing ability: unable to obtain complete virus killing ability
E. coli [8]
  minimum concentration of silver necessary for antibacterial activity: 40-50 ppb
S. aureus
  time to inactivate S. aureus: over 24 h

## O=C(O)O [CO3^2−, carbonate]
E. coli [2]; CO3^2− without Ag^+
  reduction in bacterial count by itself: doesn't provide a significant reduction in bacterial count
S. aureus (MTCC 96); 20 ppm CO3^2− alone
  viable bacteria count: > 10^5 CFU/mL
MS2 bacteriophage [5]; 20 ppm CO3^2−, no Ag^+, 1 h
  virus killing efficiency: 25%
MS2 bacteriophage [6]; 20 ppm CO3^2−, standing time 1 h
  virus killing efficiency: 20%

## [Fe+3] [Fe^3+]
E-coli [9]
  reduction in bacterial count: does not offer any reduction in bacterial count

## [Cl][Ag] [AgCl]
[10]
  solubility in water: 1.9 µg/mL
